Patent publication US12144864B2, “Tubulysins and protein-tubulysin conjugates” (Regeneron Pharmaceuticals, Inc., priority 2018, dated 2024)
Where two headings read alike, the source gives them in different places.

Legend:
[1] = system: MES-SA/MX2 cells; assay: Cytotoxicity in panel of MDR cell lines, MES-SA/MX2 (72 h and 144 h); format: cell-based, human; details: for IC50: Homo sapiens
How it was run: (§1)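 1000 cells/well, normal growth medium; 1:3 serial payload dilutions plus untreated control; 72 h and 144 h at 37 °C, 5% CO2; CellTiter-Glo 10 min RT; RLU → 4-parameter logistic IC50 (10 points).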

[2] = system: HEK293 cells; assay: Cell-based killing assay of payloads (CellTiter-Glo), HEK293 cells; set-up: species or system human; details: 5-day incubation; for IC50: Homo sapiens, HEK293, 120 h; for HEK293 % Kill: at maximum concentration tested
Method: (§2) To test the ability of the disclosed tubulysin payloads to kill human cell lines, an in vitro cytotoxicity assay was performed. In vitro cytotoxicity of the disclosed payloads, as well as reference compounds, were evaluated using the CellTiter-Glo Assay Kit (Promega, Cat #G7573), in which the quantity of ATP present is used to determine the number of viable cells in culture. For the assay, C4-2, HEK293, or T47D cells were seeded at 4000 cells/well on Nunclon white 96-well plates in complete growth medium (DME high glucose:Ham's F12 at 4:1, 10% FBS, 100 units/ml Penicillin, 100 ug/ml streptomycin, 53 ug/ml glutatmine, 10 ug/ml insulin, 220 ng/ml biotin, 12.5 pg/ml T3, 12.5 ug/ml Adenine, 4 ug/ml transferrin for C42 cells; DME high glucose, 10% FBS, 100 units/ml Penicillin, 100 ug/ml streptomycin, 53 ug/ml glutatmine for HEK293; RPMI, 10% FBS, 100 units/ml Penicillin, 100 ug/ml streptomycin, 53 ug/ml glutatmine, 10 ug/ml insulin, 10 mM HEPEs, 200 nM Sodium Pyruvate for T47D cells) and grown overnight at 37° C. in 5% CO2. For cell viability curves, 1:3 serially diluted payloads were added to the cells at final concentrations ranging from 100 nM to […], including a no treatment control group, and were then incubated for 5 days. After the 5-day incubation, cells were incubated at room temperature with 100 μL of CellTiter-Glo reagents for 10 minutes. Relative luminescence units (RLU) were determined on a Victor plate reader (PerkinElmer). The IC50 values were determined from a four-parameter logistic equation over a 10-point response curve (GraphPad Prism). All IC50 values are expressed in molar (M) concentration. The percent cell killing (% kill) at the maximum concentration tested was estimated from the following formula (100−% viable cells). Averages±standard deviation (SD) are included where replicate experiments were performed.

[3] = system: C4-2 cells; assay: Cell-based killing assay of payloads (CellTiter-Glo), C4-2 cells; set-up: species or system human; details: 5-day incubation; for IC50: Homo sapiens, C4-2, 120 h, average ± SD where replicates; for C4-2 % Kill: at maximum concentration tested (100 − % viable cells)
How it was run: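 Viability readout is CellTiter-Glo luminescence after a 5-day exposure to 10-point, threefold-diluted payloads spanning 100 nM–[…], following overnight attachment of 4000 cells/well. Four-parameter logistic fit gives IC50 in M; % kill taken at highest concentration tested.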

[4] = system: HL60/MX2 cells; assay: Cytotoxicity in panel of MDR cell lines, HL60/MX2 (72 h and 144 h); format: cell-based, human; details: for IC50: Homo sapiens
How it was run: as §1

[5] = system: HCT-15 cells; assay: Cytotoxicity in panel of MDR cell lines, HCT-15 (72 h and 144 h); format: cell-based, human; details: for IC50: Homo sapiens
How it was run: as §1

[6] = system: T47D cells; assay: Cell-based killing assay of payloads (CellTiter-Glo), T47D cells; set-up: species or system human; details: 5-day incubation; for IC50: Homo sapiens, T47D, 120 h; for T47D % Kill: at maximum concentration tested
Method: as §2

[7] = system: H69AR cells; assay: Cytotoxicity in panel of MDR cell lines, H69AR (72 h and 144 h); format: cell-based, human; details: for IC50: Homo sapiens
How it was run: as §1

[8] = system: HCT15 cells; assay: cells; format: cell-based, human; details: HCT15 cells; for HCT-15 + verapamil % Kill / HCT-15 % Kill: maximum % cell killing
How it was run: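 Five-day exposure of 1000 HCT15 cells/well to threefold payload dilutions, run both plus and minus verapamil (5 ug/mL) in RPMI with 10% FBS. ATP luminescence (CellTiter-Glo) gives viability; four-parameter logistic fit of 10 points yields IC50, and 100 − % viable at highest dose gives % kill.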

[9] = 72 h incubation, read-out: MES-SA/MX2 IC50 72 h
[10] = 144 h incubation, read-out: MES-SA/MX2 IC50 144 h
[11] = 72 h incubation, read-out: HL60/MX2 IC50 72 h
[12] = 144 h incubation, read-out: HL60/MX2 IC50 144 h
[13] = 72 h incubation, read-out: HCT-15 IC50 72 h
[14] = 144 h incubation, read-out: HCT-15 IC50 144 h
[15] = 72 h incubation, read-out: H69AR IC50 72 h
[16] = 144 h incubation, read-out: H69AR IC50 144 h
[17] = with 5 ug/mL Verapamil, read-out: HCT-15 + verapamil IC50
[18] = Homo sapiens, HCT-15, without Verapamil, read-out: HCT-15 IC50

Structure (SMILES)	MES-SA/MX2 % Kill 72 h ([1]; 72 h incubation) [%]	MES-SA/MX2 % Kill 144 h ([1]; 144 h incubation) [%]	IC50 [1, 9] [nM]	IC50 [1, 10] [nM]	IC50 [2] [nM]	HEK293 % Kill [2] [%]	IC50 [3] [nM]	C4-2 % Kill [3] [%]	HL60/MX2 % Kill 72 h ([4]; 72 h incubation) [%]	HL60/MX2 % Kill 144 h ([4]; 144 h incubation) [%]	IC50 [4, 11] [nM]	IC50 [4, 12] [nM]	HCT-15 % Kill 72 h ([5]; 72 h incubation) [%]	HCT-15 % Kill 144 h ([5]; 144 h incubation) [%]	IC50 [5, 13] [nM]	IC50 [5, 14] [nM]	IC50 [6] [nM]	T47D % Kill [6] [%]	H69AR % Kill 72 h ([7]; 72 h incubation) [%]	H69AR % Kill 144 h ([7]; 144 h incubation) [%]	further results
C#CCCCCN(C(=O)[C@@H](NC(=O)[C@H]1CCCCN1C)[C@@H](C)CC)[C@H](C[C@@H](OC(C)=O)c1nc(C(=O)N[C@@H](Cc2ccc(F)cc2)CC(C)(C)C(=O)O)cs1)C(C)C [IVc, (4S)-4-({2-[(1R,3R)-1-(Acetyloxy)-3-[(2S,3S)—N-(hex-5-yn-1-yl)-3-methyl-2-{[(2R)-1-methylpiperidin-2-yl]formamido}pentanamido]-4-methylpentyl]-1,3-thiazol-4-yl}formamido)-5-(4-fluorophenyl)-2,2-dimethylpentanoic acid]	98.2	99.9	0.374	0.604	0.307	84.8	0.0924	92.2	97.7	99.9	< 0.015	< 0.015	97.3	99.8	0.125	0.165	0.205	81.4	96.6	99.3	IC50 [7, 15]: 0.36 nM; IC50 [7, 16]: 0.725 nM; HCT-15 + verapamil % Kill ([8]; with 5 ug/mL Verapamil): 98%; IC50 [8, 17]: 0.113 nM; HCT-15 % Kill ([8]; without Verapamil): 99.2%; IC50 [8, 18]: 0.302 nM
C#CCCCCN(C(=O)[C@@H](NC(=O)[C@H]1CCCCN1C)[C@@H](C)CC)[C@H](C[C@@H](OC(C)=O)c1nc(C(=O)N[C@@H](Cc2ccc(F)cc2)C[C@H](C)C(=O)O)cs1)C(C)C [IVe, (2S,4R)-4-({2-[(1R,3R)-1-(Acetyloxy)-3-[(2S,3S)—N-(hex-5-yn-1-yl)-3-methyl-2-{[(2R)-1-methylpiperidin-2-yl]formamido}pentanamido]-4-methylpentyl]-1,3-thiazol-4-yl}formamido)-5-(4-fluorophenyl)-2-methylpentanoic acid]	99.6	99.9	0.786	2.81	0.281	86.7	0.0742	91.8	97.3	99.9	< 0.015	< 0.015	98.1	99.6	0.133	0.23	0.155	67.2	96.5	99	IC50 [7, 15]: 0.585 nM; IC50 [7, 16]: 1.26 nM; HCT-15 + verapamil % Kill ([8]; with 5 ug/mL Verapamil): 97.6%; IC50 [8, 17]: 0.1 nM; HCT-15 % Kill ([8]; without Verapamil): 95.8%; IC50 [8, 18]: 0.295 nM
C#CCCCCN(C(=O)[C@@H](NC(=O)[C@H]1CCCCN1C)[C@@H](C)CC)[C@H](C[C@@H](OC(C)=O)c1nc(C(=O)N[C@@H](Cc2ccc(O)cc2)C[C@H](C)C(=O)O)cs1)C(C)C [IVf, (2S,4R)-4-({2-[(1R,3R)-1-(Acetyloxy)-3-[(2S,3S)—N-(hex-5-yn-1-yl)-3-methyl-2-{[(2R)-1-methylpiperidin-2-yl]formamido}pentanamido]-4-methylpentyl]-1,3-thiazol-4-yl}formamido)-5-(4-hydroxyphenyl)-2-methylpentanoic acid]	99.1	99.9	2.57	3.82	1.64	86.0	0.229	93.8	97.2	100	0.222	< 0.015	96.9	99.8	0.419	0.396	0.782	67.1	94.6	98.9	IC50 [7, 15]: 1.33 nM; IC50 [7, 16]: 1.55 nM; HCT-15 + verapamil % Kill ([8]; with 5 ug/mL Verapamil): 97.7%; IC50 [8, 17]: 0.686 nM; HCT-15 % Kill ([8]; without Verapamil): 96.4%; IC50 [8, 18]: 0.554 nM
C#CCCCCN(C(=O)[C@@H](NC(=O)[C@H]1CCCCN1C)[C@@H](C)CC)[C@H](C[C@@H](OC(C)=O)c1nc(C(=O)N[C@@H](Cc2ccc(N)cc2)C[C@H](C)C(=O)O)cs1)C(C)C [IVg, (2S,4R)-4-({2-[(1R,3R)-1-(Acetyloxy)-3-[(2S,3S)—N-(hex-5-yn-1-yl)-3-methyl-2-{[(2R)-1-methylpiperidin-2-yl]formamido}pentanamido]-4-methylpentyl]-1,3-thiazol-4-yl}formamido)-5-(4-aminophenyl)-2-methylpentanoic acid]	99.6	100	0.838	0.999	0.539	86.5	0.136	91.7	98.5	100	0.124	< 0.015	97.6	99.5	0.17	0.223	0.413	62.9	95.7	99.2	IC50 [7, 15]: 0.553 nM; IC50 [7, 16]: 0.571 nM; HCT-15 + verapamil % Kill ([8]; with 5 ug/mL Verapamil): 97.5%; IC50 [8, 17]: 0.328 nM; HCT-15 % Kill ([8]; without Verapamil): 97.1%; IC50 [8, 18]: 0.46 nM
CC[C@H](C)[C@H](NC(=O)[C@H]1CCCCN1C)C(=O)N(CCCCc1cn(C)nn1)[C@H](C[C@@H](OC(C)=O)c1nc(C(=O)N[C@@H](Cc2ccc(N)cc2)CC(C)(C)C(=O)O)cs1)C(C)C [IVh, (S)-4-(2-((1R,3R)-1-acetoxy-4-methyl-3-((2S,3S)-3-methyl-N-(4-(1-methyl-1H-1,2,3-triazol-4-yl)butyl)-2-((R)-1-methylpiperidine-2-carboxamido)pentanamido)pentyl)thiazole-4-carboxamido)-5-(4-aminophenyl)-2,2-dimethylpentanoic acid]	98.5	99.9	7.49	8.8	1.76	82.5	0.647	82 ± 2.8	96.4	100	1.11	< 0.015	95.4	99.7	1.52	1.53	1.86	71.6	90.2	97.5	IC50 [7, 15]: 2.93 nM; IC50 [7, 16]: 3.3 nM; HCT-15 % Kill ([8]; without Verapamil): 94.6 ± 3.5%; IC50 [8, 18]: 2.5 nM
